Holding throughout (format): functional
For test [1], the system named is Candida albicans. Kind of test: Antifungal activity against Candida albicans. To be noted: Candida albicans; for MIC: read-out: MIC.
The next test deals with Pichia norvegensis. As to the kind of experiment: Antifungal activity against Candida mycoderma.
In test [2] the test system is Pichia kudriavzevii. Kind of test: Antifungal activity against Candida krusei.
Test [3] concerns Candida albicans. As to the kind of experiment: Potency index, ratio of fluconazole MIC to test compound MIC for Candida albicans.
For test [4], the system named is Pichia kudriavzevii. Kind of test: Potency index, ratio of fluconazole MIC to test compound MIC for Candida krusei.
Test [5] concerns Candida parapsilosis. Kind of test: Antifungal activity against Candida parapsilosis. To be noted: Lodderomyces parapsilosis.
Test [6] concerns Cryptococcus neoformans. As to the kind of experiment: Antifungal activity against Cryptococcus neoformans. To be noted: Cryptococcus neoformans.
The test system of test [7] is Trichophyton rubrum. As to the kind of experiment: Potency index, ratio of fluconazole MIC80 to test compound MIC80 for Trichophyton rubrum.
In test [8] the test system is Nannizzia gypsea. Kind of test: Potency index, ratio of fluconazole MIC80 to test compound MIC80 for Microsporum gypseum.
The test system of test [9] is Candida albicans. As to the kind of experiment: Antifungal activity against Candida albicans ATCC SC5314 after 24 hrs. To be noted: ATCC SC5314, 24 h.
In test [10] the test system is Candida parapsilosis. As to the kind of experiment: Antifungal activity against Candida parapsilosis after 24 hrs. The following applies: Lodderomyces parapsilosis.
Test [11] concerns Pichia kudriavzevii. Kind of test: Antifungal activity against Candida krusei after 24 hrs.
Test [12] deals with Cryptococcus neoformans. As to the kind of experiment: Antifungal activity against Cryptococcus neoformans after 24 hrs.
The subject of test [13] is Nannizzia gypsea. As to the kind of experiment: Antifungal activity against Microsporum gypseum after 24 hrs.
Test [14] has as its system Trichophyton rubrum. Kind of test: Antifungal activity against Trichophyton rubrum after 24 hrs.
For test [15], the system named is Aspergillus fumigatus. Kind of test: Antifungal activity against Aspergillus fumigatus after 24 hrs.
The subject of test [16] is Candida albicans. As to the kind of experiment: Antifungal activity against Candida albicans Y0109 after 24 hrs. The following applies: Y0109, 24 h.
The test system of test [17] is Candida albicans. Kind of test: Antifungal activity against Candida albicans after 48 hrs by NCCLS protocol based method.
Test [18] relates to Candida parapsilosis. Kind of test: Antifungal activity against Candida parapsilosis after 48 hrs by NCCLS protocol based method. The following applies: Lodderomyces parapsilosis.
Test [19] deals with Candida albicans. Kind of test: Antifungal activity against Candida albicans infected in Caenorhabditis elegans assessed as survival at 16 ug/ml relative to control.
In test [20] the test system is Cryptococcus neoformans. Kind of test: Potency index, ratio of fluconazole MIC to test compound MIC for Cryptococcus neoformans infected in Caenorhabditis elegans.
Test [21] concerns Cryptococcus neoformans. Kind of test: Antifungal activity against Cryptococcus neoformans infected in Caenorhabditis elegans.
In test [22] the test system is Candida albicans. Kind of test: Antifungal activity against fluconalzole-susceptible Candida albicans after 24 hrs.
Test [23] has as its system Candida parapsilosis. As to the kind of experiment: Antifungal activity against fluconalzole-susceptible Candida parapsilosis after 24 hrs. To be noted: Lodderomyces parapsilosis.
Test [24] deals with Candida albicans. As to the kind of experiment: Antifungal activity against fluconalzole-resistant Candida albicans after 24 hrs.
Test [25] deals with Candida parapsilosis. As to the kind of experiment: Antifungal activity against fluconalzole-resistant Candida parapsilosis after 24 hrs. To be noted: Lodderomyces parapsilosis.
The subject of test [26] is Candida albicans. Kind of test: Antifungal activity against Candida albicans after 24 hrs by NCCLS protocol based method.
Test [27] deals with Candida tropicalis. Kind of test: Antifungal activity against Candida tropicalis after 24 hrs by NCCLS protocol based method.
The test system of test [28] is Cryptococcus neoformans. As to the kind of experiment: Antifungal activity against Cryptococcus neoformans after 72 hrs by NCCLS protocol based method.
Test [29] relates to Trichophyton rubrum. As to the kind of experiment: Antifungal activity against Trichophyton rubrum after 7 days by NCCLS protocol based method. To be noted: 168 h.
The test system of test [30] is Nannizzia gypsea. Kind of test: Antifungal activity against Microsporum gypseum after 7 days by NCCLS protocol based method. To be noted: 168 h.
In test [31] the test system is Candida tropicalis. As to the kind of experiment: Antifungal activity against Candida tropicalis. The following applies: Candida tropicalis; read-out: MIC.
The next test has as its system Kluyveromyces marxianus. Kind of test: Antifungal activity against Candida kefyr. To be noted: Kluyveromyces marxianus; read-out: MIC.
The subject of test [32] is Trichophyton rubrum. Kind of test: Antifungal activity against Trichophyton rubrum. To be noted: Trichophyton rubrum; read-out: MIC.
The test system of test [33] is Aspergillus fumigatus. Kind of test: Antifungal activity against Aspergillus fumigatus. To be noted: Aspergillus fumigatus.
In test [34] the test system is Candida tropicalis. As to the kind of experiment: Antifungal activity against Candida tropicalis after 24 hrs by microbroth dilution method.
Test [35] has as its system Trichophyton rubrum. As to the kind of experiment: Antifungal activity against Trichophyton rubrum after 24 hrs by microbroth dilution method.
The test system of the next test is Microsporum canis. Kind of test: Antifungal activity against Microsporum canis after 24 hrs by microbroth dilution method.
The subject of a further test is Fonsecaea compacta. Kind of test: Antifungal activity against Fonsecaea compacta after 24 hrs by microbroth dilution method.
Test [36] has as its system Aspergillus fumigatus. As to the kind of experiment: Antifungal activity against Aspergillus fumigatus after 24 hrs by microbroth dilution method.
Test [37] deals with Candida albicans. Kind of test: Antifungal activity against Candida albicans infected in Caenorhabditis elegans assessed as survival at 32 ug/ml relative to control.

The structures appear in SMILES notation. ≈ marks a conversion by molar mass, not a printed value.

In the case of `O=C(O)c1cn(C2CC2)c2c(Cl)c(N3CCC(NCC(O)(Cn4cncn4)c4ccc(F)cc4)C3)c(F)cc2c1=O` (centres undefined), the MIC with Candida albicans [1] and in the test with Pichia norvegensis was 0.25 to 2 µg/mL (≈ 0.427 to 3.42 µM) throughout.
As for `O=C(O)c1cn(C2CC2)c2c(Cl)c(N3CCC(NCC(O)(Cn4cncn4)c4ccc(Cl)c(Cl)c4)C3)c(F)cc2c1=O` (centres undefined), the minimum inhibitory concentration (MIC) with Candida albicans [1] and in the test with Pichia norvegensis was 0.25 to 2 µg/mL (≈ 0.393 to 3.15 µM) in each case.
On to `O=C(O)c1cn(C2CC2)c2c(Cl)c(N3CCC(NCC(O)(Cn4cncn4)c4ccc(F)c(F)c4)C3)c(F)cc2c1=O` (centres undefined), for which the MIC with Candida albicans [1] and against Pichia norvegensis was 0.25 to 2 µg/mL (≈ 0.415 to 3.32 µM) each time.
In the case of `O=C(O)c1cn(C2CC2)c2c(Cl)c(N3CCC(NCC(O)(Cn4cncn4)c4ccc(F)cc4F)C3)c(F)cc2c1=O` (centres undefined), the MIC with Candida albicans [1] and in the test with Pichia norvegensis was 0.25 to 2 µg/mL (≈ 0.415 to 3.32 µM) in each case.
Regarding `C#CCN(Cc1ccc(F)cc1F)CC(O)(Cn1cncn1)c1ccc(F)cc1F` (centres undefined), the MIC80 in the test with Candida albicans [1] and against Pichia kudriavzevii [2] was 0.00097 µg/mL (≈ 0.00232 µM) each time. The Ratio with Candida albicans [3] stood at 515; in the test with Pichia kudriavzevii [4] it was 64.
For the compound `OC(CN1CCN(Cc2cn(Cc3ccc(Br)cc3)nn2)CC1)(Cn1cncn1)c1ccc(F)cc1F` (centres undefined), the MIC80 in the test on Candida albicans [1], with Candida parapsilosis [5] and against Cryptococcus neoformans [6] was ≤ 0.5 µg/mL throughout. The Ratio with Trichophyton rubrum [7] and in the test on Nannizzia gypsea [8] was 4 - 128 in each case.
In the case of `OC(Cc1cn(CCOCc2ccc(Br)cc2)nn1)(Cn1cncn1)c1ccc(F)cc1F` (centres undefined), the MIC in the test with Candida albicans [9], in the test on Candida parapsilosis [10], in the test on Pichia kudriavzevii [11], with Cryptococcus neoformans [12], in the test on Nannizzia gypsea [13] and in the test with Trichophyton rubrum [14] was 0.0156 to 0.0625 µg/mL (≈ 0.03 to 0.12 µM) each time. Also, the MIC against Aspergillus fumigatus [15] and with Candida albicans [16] was 0.0156 to 0.0625 µg/mL (≈ 0.03 to 0.12 µM) in each case.
For the compound `COC(=O)CC[C@@H](C)[C@H]1CC[C@H]2[C@@H]3[C@H](O)C[C@@H]4C[C@@H](n5cc(CC(O)(Cn6cncn6)c6ccc(F)cc6F)nn5)CC[C@]4(C)[C@H]3C[C@H](O)[C@]12C` (some centres undefined), the minimal inhibitory concentration (MIC) against Candida albicans [17] and in the test with Candida parapsilosis [18] was 3.12 to 6.25 µg/mL (≈ 4.39 to 8.79 µM) each time.
Take `OC(Cn1cncn1)(Cn1cc(C2CC2)nn1)c1ccc(F)cc1F` (centres undefined): in the test on Candida albicans [1], the minimal inhibitory concentration (MIC) came out at 0.125 µg/mL (≈ 0.361 µM). The survival at 16 µg/mL in the test with Candida albicans [19] was found to be 70%.
`C[C@H](CCCn1cc(CC(O)(Cn2cncn2)c2ccc(F)cc2F)nn1)[C@H]1CC[C@H]2[C@@H]3[C@H](O)C[C@@H]4C[C@H](O)CC[C@]4(C)[C@H]3C[C@H](O)[C@]12C` (some centres undefined): the MIC in the test with Candida albicans [17] and against Candida parapsilosis [18] was 3.12 to 6.25 µg/mL (≈ 4.57 to 9.15 µM) throughout.
`COC(=O)CC[C@@H](C)[C@H]1CC[C@H]2[C@@H]3CC[C@@H]4C[C@@H](n5cc(CC(O)(Cn6cncn6)c6ccc(F)cc6F)nn5)CC[C@]4(C)[C@H]3C[C@H](O)[C@]12C` (some centres undefined): the MIC in the test on Candida albicans [17] and against Candida parapsilosis [18] was 3.12 to 6.25 µg/mL (≈ 4.49 to 8.99 µM) throughout.
Turning to `C[C@H](CCCn1cc(CC(O)(Cn2cncn2)c2ccc(F)cc2F)nn1)[C@H]1CC[C@H]2[C@@H]3CC[C@@H]4C[C@H](O)CC[C@]4(C)[C@H]3C[C@H](O)[C@]12C` (some centres undefined), the MIC against Candida albicans [17] and against Candida parapsilosis [18] was 3.12 to 6.25 µg/mL (≈ 4.68 to 9.37 µM) each time.
Turning to `OC(Cc1cn(C2CCCC2)nn1)(Cn1cncn1)c1ccc(F)cc1F` (centres undefined), the Ratio in the test on Cryptococcus neoformans [20] was determined as 8. Also, in the test on Cryptococcus neoformans [21], the MIC was found to be 0.25 µg/mL (≈ 0.668 µM).
For `OC(Cn1cncn1)(Cn1cnc(SCc2cccc(Cl)c2)n1)c1ccc(F)cc1F` (centres undefined), the MIC in the test on Candida albicans [22] lay in the range of 0.063 to 1 µg/mL (≈ 0.136 to 2.16 µM); in the test on Candida parapsilosis [23], 0.063 to 1 µg/mL (≈ 0.136 to 2.16 µM); in the test with Candida albicans [24] it was 0.125 to 16 µg/mL (≈ 0.27 to 34.6 µM); against Candida parapsilosis [25], 0.125 to 16 µg/mL (≈ 0.27 to 34.6 µM).
Regarding `OC(Cn1cncn1)(Cn1cncn1)c1ccc(F)cc1F` [FLUCONAZOLE], the MIC against Candida albicans [26], in the test with Candida tropicalis [27], in the test with Cryptococcus neoformans [28], with Trichophyton rubrum [29], with Nannizzia gypsea [30] and in the test with Candida albicans [1] was 0.5 µg/mL (≈ 1.63 µM) in each case. Also, the MIC in the test with Candida parapsilosis [5] (read-out: MIC) is 1 µg/mL (≈ 3.27 µM); in the test with Candida tropicalis [31] it was 0.125 to 8 µg/mL (≈ 0.408 to 26.1 µM); in the test with Kluyveromyces marxianus, 0.125 to 8 µg/mL (≈ 0.408 to 26.1 µM); in the test on Cryptococcus neoformans [6] (read-out: MIC), 1 µg/mL (≈ 3.27 µM); in the test on Trichophyton rubrum [32], 0.125 to 8 µg/mL (≈ 0.408 to 26.1 µM); against Candida albicans [22] it was 0.5 to 4 µg/mL (≈ 1.63 to 13.1 µM). For the same compound, the MIC was 0.5 to 4 µg/mL (≈ 1.63 to 13.1 µM) in the test with Candida parapsilosis [23]; ≥ 64 µg/mL in the test on Candida albicans [9]; ≥ 64 µg/mL against Candida parapsilosis [10]; ≥ 64 µg/mL against Pichia kudriavzevii [11]; ≥ 64 µg/mL in the test on Cryptococcus neoformans [12]; ≥ 64 µg/mL with Nannizzia gypsea [13]. In addition, the MIC against Trichophyton rubrum [14], in the test with Aspergillus fumigatus [15] and against Candida albicans [16] was ≥ 64 µg/mL throughout. Further, the MIC80 in the test on Aspergillus fumigatus [33] is > 200 µM; against Candida tropicalis [34] it was ≥ 0.5 µg/mL; with Trichophyton rubrum [35] it was ≥ 0.5 µg/mL; in the test with Microsporum canis, ≥ 0.5 µg/mL; against Fonsecaea compacta, ≥ 0.5 µg/mL; against Aspergillus fumigatus [36] it was ≥ 0.5 µg/mL. The survival at 32 µg/mL with Candida albicans [37] came to 60%.

The record behind these values is ChEMBL document CHEMBL4396865, “Current advances of triazole alcohols derived from fluconazole: Design, in vitro and in silico studies” (2019).
